We go through twelve molecules from US20240116985A1, “STAPLED PEPTIDES AND METHODS THEREOF” (priority 2020, published 2024).

The structures appear in SMILES notation. Converted amounts (≈) assume the structure as drawn. Like-named read-outs stand apart in the source and are kept apart here.

In data set [1] the target is T1, beta-catenin/TCF4 engagement (Homo sapiens, UniProt P35222).
T1 construct: expressed in transfected cells; host or cells: HEK293
T1 sequence (P35222 1-781): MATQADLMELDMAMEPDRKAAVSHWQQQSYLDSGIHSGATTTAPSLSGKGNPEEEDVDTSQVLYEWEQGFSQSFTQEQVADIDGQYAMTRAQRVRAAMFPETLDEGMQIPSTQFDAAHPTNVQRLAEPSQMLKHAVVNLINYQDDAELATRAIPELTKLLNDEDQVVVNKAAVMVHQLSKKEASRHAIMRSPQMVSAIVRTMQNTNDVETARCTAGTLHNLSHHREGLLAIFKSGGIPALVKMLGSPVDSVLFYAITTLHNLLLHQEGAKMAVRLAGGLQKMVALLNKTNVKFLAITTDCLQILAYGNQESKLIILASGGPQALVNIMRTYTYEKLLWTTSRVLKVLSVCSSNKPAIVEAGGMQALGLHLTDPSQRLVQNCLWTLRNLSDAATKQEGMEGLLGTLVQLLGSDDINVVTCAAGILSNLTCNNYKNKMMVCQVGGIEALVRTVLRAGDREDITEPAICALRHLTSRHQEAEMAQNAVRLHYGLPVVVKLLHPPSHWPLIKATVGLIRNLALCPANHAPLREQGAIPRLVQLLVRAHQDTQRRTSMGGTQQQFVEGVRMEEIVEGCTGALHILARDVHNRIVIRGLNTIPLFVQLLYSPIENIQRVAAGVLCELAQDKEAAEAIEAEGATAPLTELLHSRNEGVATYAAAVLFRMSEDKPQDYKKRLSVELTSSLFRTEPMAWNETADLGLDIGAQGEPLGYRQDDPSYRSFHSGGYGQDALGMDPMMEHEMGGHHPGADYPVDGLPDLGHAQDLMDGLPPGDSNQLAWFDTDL
In words: Nano-BRET target engagement assay (B-cat-Halo & TCF4-Luc in HEK293 cells). It is filed as cell-based. To be noted: absolute IC50; read-out: NanoBRET Abs IC50.

The target in data set [2] is T2, full-length beta-Catenin (Uniprot ID P35222) (Homo sapiens, UniProt P35222).
T2 construct: 10 nM full-length beta-Catenin (Uniprot ID P35222)
T2 sequence (P35222 1-781): T1 sequence (P35222 1-781)
In words: Fluorescence polarization IC50 (beta-catenin / 5FAM-TCF4 10-53 competition). The format is binding. To be noted: fluorescence polarization. (In general: Polarisation of emitted light reports the rotation of a fluorescent probe.)

Data set [3] in a line: Solubility in PBS. The format is physicochemical. In outline:
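Read-out is the HPLC peak area of the supernatant from ultracentrifuged PBS solution, scaled against a 50 μM peptide DMSO injection; value reported as [(PBS area)/(DMSO area)]*50 uM.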

One may read the Solubility as how much of the substance goes into solution per volume. High values mean a readily soluble substance, low ones a poorly soluble substance. Consider `CC(=O)N1CCC[C@]12CC=CCCCC1(CCCC=CCCCOC(=O)N3CC[C@@](C(=O)N[C@@H](Cc4ccccc4Cl)C(=O)N[C@@H](Cc4csc5ccccc45)C(=O)N[C@@H](CO)C(N)=O)(C3)NC(=O)[C@H]([C@@H](C)O)NC(=O)[C@H](Cc3ccccc3)NC(=O)[C@H](C)NC(=O)[C@H](CC(C)C)NC(=O)[C@H](CC(=O)O)NC(=O)[C@H](CC(=O)O)NC1=O)NC(=O)[C@H](CC1CCCCC1)NC(=O)[C@H](CC(=O)O)NC2=O` (stereo partly drawn) [I-1150, Ac-PL3-Asp-Cha-B5-Asp-Asp-Leu-Ala-Phe-Thr-PyrS2-2C1F-BztA-Ser-NH2], for which the values for the IC50 in data set [1] and in data set [2] (read-out: beta-Catenin FP IC50) were 21400 nM and 12 nM, respectively. In data set [3] (Solubility (uM)), this molecule came in with a Solubility of 18 µM (≈ 35.3 µg/mL).
Consider `CC(=O)N1CCC[C@]12CC=CCCCC1(CCCC=CCCCOC(=O)N3CC[C@@](C(=O)N[C@@H](Cc4ccccc4Cl)C(=O)N[C@@H](Cc4csc5ccccc45)C(=O)N[C@@H](CO)C(N)=O)(C3)NC(=O)[C@H]([C@@H](C)O)NC(=O)[C@H](Cc3ccccc3)NC(=O)[C@H](CC(C)C)NC(=O)[C@H](C)NC(=O)[C@H](CC(=O)O)NC(=O)[C@H](CC(=O)O)NC1=O)NC(=O)[C@H](CC1CCCCC1)NC(=O)[C@H](CC(=O)O)NC2=O` (stereo partly drawn) [I-1151, Ac-PL3-Asp-Cha-B5-Asp-Asp-Ala-Leu-Phe-Thr-PyrS2-2C1F-BztA-Ser-NH2], for which the results for the IC50 in data set [1] and in data set [2] (read-out: beta-Catenin FP IC50) were 25300 nM and 30 nM, respectively. Moreover, the “Solubility” value in data set [3] turned out to be 10 µM (≈ 19.6 µg/mL).
For `CC(=O)N1CCC[C@]12CC=CCCCC1(CCCC=CCCCOC(=O)N3CC[C@@](C(=O)N[C@@H](Cc4ccccc4Cl)C(=O)N[C@@H](Cc4csc5ccccc45)C(=O)N[C@@H](CO)C(N)=O)(C3)NC(=O)[C@H]([C@@H](C)O)NC(=O)[C@H](Cc3ccccc3)NC(=O)[C@H](CC(C)C)NC(=O)[C@H](CC(C)C)NC(=O)[C@H](CC(=O)O)NC(=O)[C@H](CC(=O)O)NC1=O)NC(=O)[C@H](CC1CCCCC1)NC(=O)[C@H](CC(=O)O)NC2=O` (stereo partly drawn) [I-1152, Ac-PL3-Asp-Cha-B5-Asp-Asp-Leu-Leu-Phe-Thr-PyrS2-2C1F-BztA-Ser-NH2], the IC50 in data set [1] was 14200 nM; in data set [2] (read-out: beta-Catenin FP IC50), 65 nM. The “Solubility” value in data set [3] was 10 µM (≈ 20 µg/mL).
Consider `CC(=O)N1CCC[C@]12CC=CCCCC1(CCCC=CCCCOC(=O)N3CC[C@@](C(=O)N[C@@H](Cc4ccccc4Cl)C(=O)N[C@@H](Cc4csc5ccccc45)C(=O)N[C@@H](CO)C(N)=O)(C3)NC(=O)[C@H]([C@@H](C)O)NC(=O)[C@H](Cc3ccccc3)NC(=O)[C@H](CC(C)C)NC(=O)[C@H](C)NC(=O)[C@H](CC(=O)O)NC(=O)[C@H](CC(=O)O)NC1=O)NC(=O)[C@H](Cc1ccccc1)NC(=O)[C@H](CC(=O)O)NC2=O` (stereo partly drawn) [I-1157, Ac-PL3-Asp-Phe-B5-Asp-Asp-Ala-Leu-Phe-Thr-PyrS2-2C1F-BztA-Ser-NH2], for which the IC50 in data set [1] was above 20000 nM; in data set [2] (read-out: beta-Catenin FP IC50) it was 36 nM. The molecule further displayed a Solubility in data set [3] (Solubility (uM)) of 15 µM (≈ 29.3 µg/mL).
The like results for `CC(=O)N1CCC[C@]12CC=CCCCC1(CCCC=CCCCOC(=O)N3CC[C@@](C(=O)N[C@@H](Cc4ccsc4)C(=O)N[C@@H](Cc4csc5ccccc45)C(=O)N[C@@H](CCC(N)=O)C(N)=O)(C3)NC(=O)[C@H]([C@@H](C)O)NC(=O)[C@H](Cc3ccccc3)NC(=O)[C@H](C)NC(=O)[C@H](C)NC(=O)[C@H]([C@@H](C)O)NC(=O)[C@H](CC(=O)O)NC1=O)NC(=O)[C@H](CC(C)(C)C)NC(=O)[C@H](CC(=O)O)NC2=O` (stereo partly drawn) [I-1166, Ac-PL3-Asp-Npg-B5-Asp-Thr-Ala-Ala-Phe-Thr-PyrS2-3Thi-BztA-Gln-NH2] were, in that order, 14600 nM, 14 nM and 14 µM (≈ 26.5 µg/mL).
Consider `CC(=O)N1CCC[C@]12CC=CCCCC1(CCCC=CCCCOC(=O)N3CC[C@@](C(=O)N[C@@H](Cc4ccsc4)C(=O)N[C@@H](Cc4csc5ccccc45)C(=O)N[C@@H](CCC(N)=O)C(N)=O)(C3)NC(=O)[C@H](CC(C)C)NC(=O)[C@H](Cc3ccccc3)NC(=O)[C@H](C)NC(=O)[C@H](C)NC(=O)[C@H]([C@@H](C)O)NC(=O)[C@H](CC(=O)O)NC1=O)NC(=O)[C@H](CC(C)(C)C)NC(=O)[C@H](CC(=O)O)NC2=O` (stereo partly drawn) [I-1167, Ac-PL3-Asp-Npg-B5-Asp-Thr-Ala-Ala-Phe-Leu-PyrS2-3Thi-BztA-Gln-NH2], for which the figures for the IC50 in data set [1] and in data set [2] (read-out: beta-Catenin FP IC50) were 11700 nM and 34 nM, respectively. In addition, the “Solubility” value in data set [3] is 10 µM (≈ 19 µg/mL).
`CC(=O)N1CCC[C@]12CC=CCCCC1(CCCC=CCCCOC(=O)N3CC[C@@](C(=O)N[C@@H](Cc4ccccc4Cl)C(=O)N[C@@H](Cc4csc5ccccc45)C(=O)N[C@@H](CCC(N)=O)C(N)=O)(C3)NC(=O)[C@H]([C@@H](C)O)NC(=O)[C@H](Cc3ccccc3)NC(=O)[C@H](C)NC(=O)[C@H](C)NC(=O)[C@H]([C@@H](C)O)NC(=O)[C@H](CC(=O)O)NC1=O)NC(=O)[C@H](CC(C)(C)C)NC(=O)[C@H](CC(=O)O)NC2=O` (stereo partly drawn) [I-1168, Ac-PL3-Asp-Npg-B5-Asp-Thr-Ala-Ala-Phe-Thr-PyrS2-2C1F-BztA-Gln-NH2]: the IC50 in data set [1] came to 31400 nM; in data set [2] (read-out: beta-Catenin FP IC50) it was 25 nM. Moreover, the “Solubility” value in data set [3] was determined as 10 µM (≈ 19.2 µg/mL).
As to `CC(=O)N1CCC[C@]12CC=CCCCC1(CCCC=CCCCOC(=O)N3CC[C@@](C(=O)N[C@@H](Cc4ccsc4)C(=O)N[C@@H](Cc4csc5ccccc45)C(=O)N[C@@H](CO)C(N)=O)(C3)NC(=O)[C@H]([C@@H](C)O)NC(=O)[C@H](Cc3ccccc3)NC(=O)[C@H](C)NC(=O)[C@H](C)NC(=O)[C@H]([C@@H](C)O)NC(=O)[C@H](CC(=O)O)NC1=O)NC(=O)[C@H](CC(C)(C)C)NC(=O)[C@H](CC(=O)O)NC2=O` (stereo partly drawn) [I-1170, Ac-PL3-Asp-Npg-B5-Asp-Thr-Ala-Ala-Phe-Thr-PyrS2-3Thi-BztA-Ser-NH2], the IC50 in data set [1] amounted to 13500 nM; in data set [2] (read-out: beta-Catenin FP IC50) it was 15 nM. In addition, the “Solubility” value in data set [3] worked out at 10 µM (≈ 18.5 µg/mL).
On to `CC(=O)N1CCC[C@]12CC=CCCCC1(CCCC=CCCCOC(=O)N3CC[C@@](C(=O)N[C@@H](Cc4ccsc4)C(=O)N[C@@H](Cc4csc5ccccc45)C(=O)N[C@@H](CCC(N)=O)C(N)=O)(C3)NC(=O)[C@H]([C@@H](C)O)NC(=O)[C@H](Cc3ccccc3)NC(=O)[C@H](C)NC(=O)[C@H](C)NC(=O)[C@H]([C@@H](C)O)NC(=O)[C@H](CC(=O)O)NC1=O)NC(=O)[C@H](CC1CCCCC1)NC(=O)[C@H](CC(=O)O)NC2=O` (stereo partly drawn) [I-1173, Ac-PL3-Asp-Cha-B5-Asp-Thr-Ala-Ala-Phe-Thr-PyrS2-3Thi-BztA-Gln-NH2], for which the IC50 was determined as 17200 nM in data set [1] and 12 nM in data set [2] (read-out: beta-Catenin FP IC50). Moreover, in data set [3], the “Solubility” value turned out to be 10 µM (≈ 19.2 µg/mL).
On to `CC(=O)N1CCC[C@]12CC=CCCCC1(CCCC=CCCCOC(=O)N3CC[C@@](C(=O)N[C@@H](Cc4ccccc4Cl)C(=O)N[C@@H](Cc4csc5ccccc45)C(=O)N[C@@H](CCC(N)=O)C(N)=O)(C3)NC(=O)[C@H]([C@@H](C)O)NC(=O)[C@H](Cc3ccccc3)NC(=O)[C@H](C)NC(=O)[C@H](C)NC(=O)[C@H]([C@@H](C)O)NC(=O)[C@H](CC(=O)O)NC1=O)NC(=O)[C@H](CC1CCCCC1)NC(=O)[C@H](CC(=O)O)NC2=O` (stereo partly drawn) [I-1175, Ac-PL3-Asp-Cha-B5-Asp-Thr-Ala-Ala-Phe-Thr-PyrS2-2C1F-BztA-Gln-NH2], for which the IC50 in data set [1] is 27300 nM; in data set [2] (read-out: beta-Catenin FP IC50), 24 nM. For the same molecule, the “Solubility” value in data set [3] is 10 µM (≈ 19.5 µg/mL).
As for `CC(=O)N1CCC[C@]12CC=CCCCC1(CCCC=CCCCOC(=O)N3CC[C@@](C(=O)N[C@@H](Cc4ccsc4)C(=O)N[C@@H](Cc4csc5ccccc45)C(=O)N[C@@H](CCC(N)=O)C(N)=O)(C3)NC(=O)[C@H](CC(C)C)NC(=O)[C@H](Cc3ccccc3)NC(=O)[C@H](C)NC(=O)C(C)(C)NC(=O)[C@H](CC(=O)O)NC(=O)[C@H](CC(=O)O)NC1=O)NC(=O)[C@H](CC(C)(C)C)NC(=O)[C@H](CC(=O)O)NC2=O` (stereo partly drawn) [I-1177, Ac-PL3-Asp-Npg-B5-Asp-Asp-Aib-Ala-Phe-Leu-PyrS2-3Thi-BztA-Gln-NH2], the IC50 came to 4300 nM in data set [1] and 25 nM in data set [2] (read-out: beta-Catenin FP IC50). In data set [3] (Solubility (uM)), this molecule returned a Solubility of 35 µM (≈ 67.6 µg/mL).
For the molecule `CC(=O)N1CCC[C@H]1C(=O)N[C@@H](CC(=O)O)C(=O)N[C@@H](CC(C)(C)C)C(=O)N[C@]1(C)CCCC=CCCCOC(=O)N2CC[C@@](C(=O)N[C@@H](Cc3ccsc3)C(=O)N[C@@H](Cc3csc4ccccc34)C(=O)N[C@@H](CCC(N)=O)C(N)=O)(C2)NC(=O)[C@H](CC(C)C)NC(=O)[C@H](Cc2ccccc2)NC(=O)[C@H](C)NC(=O)[C@H](C)NC(=O)[C@H](CC(=O)O)NC(=O)[C@H](CC(=O)O)NC1=O` [I-1181, Ac-Pro-Asp-Npg-R5-Asp-Asp-Ala-Ala-Phe-Leu-PyrS2-3Thi-BztA-Gln-NH2], the IC50 in data set [1] was above 20000 nM; in data set [2] (beta-catenin, read-out: FP EC50) it was 226 nM; in data set [2] (read-out: beta-Catenin FP IC50) it was 297 nM. Besides, the “Solubility” value in data set [3] turned out to be 50 µM (≈ 92.6 µg/mL).
